US12035717B1, “2-OXO-2-({2-[(phenylcarbamoyl)oxy]ethyl} amino)ethyl phenylcarbamate as an eco-friendly insecticidal agent against spodoptera littoralis (boisd.)” (priority 2024, dated 2024)
Values after ≈ are worked out from the molar mass of the structure shown.

Tested on: Spodoptera littoralis larvae (laboratory strain of cotton leafworm)
Assay: Insecticidal leaf dip bioassay on S. littoralis larvae
Details: for Toxicity index % / Toxicity ratio: 72 hours; for Toxicity index %: fenoxycarb = 100; for Toxicity ratio: fenoxycarb's LC50/compound's LC50 * 100; for LC50: after 72 hours of treatment, castor leaf dip
[1] = Spodoptera littoralis, in Gossypium hirsutum, foliar, 72 h, 2nd instar larvae
[2] = Spodoptera littoralis, in Gossypium hirsutum, foliar, 72 h, 4th instar larvae

Description: Five concentrations (200, 100, 50, 25, 12.5 ppm) were designed for this synthetic compound and the reference fenoxycarb's compound as the dynamic ingredients based on ppm via diluting the commercial formulation.
In this experiment, the synthetic compound was tested for its insecticidal bioactivity using the industry-standard leaf dip bioassay techniques. […] Until usage, the stocks were kept in a refrigerator. The target substance test results were noted & the concentrations needed to destroy 50% (LC50) of S. littoralis larvae were calculated. The target compound was employed in five different concentrations, & 0.1% Tween 80 was employed as a surfactant. Castor bean leaf discs (nine centimeters in diameter) were dipped in the concentration under test for ten seconds, then fed to 2th & 4th larvae, which were roughly the same size and housed in glass jars (five pound). Each action carried out 3 times with ten larvae each. The mortality equalized via Abbott's formula. Calculations of mortality setback line were measurably rummage via probity analysis. Harmfulness index was strongminded via sun equations. The mortality results of larval insect were estimated through employing probit analysis through a statistics (LDP-line) equation which estimate the LC50 values with 95% fiducially limits of lower, upper confidence limit and slope.

Row | Compound | Toxicity index % (2nd instar larvae) [%] | Toxicity ratio (4th instar larvae) | LC50 [1] [µg/mL] | LC50 [2] [µg/mL] | LC50 (4th instar larvae) [µg/mL] | Activity against Spodoptera littoralis (in words) (summary of Table 1 data) | LC50 (2nd instar larvae)
1 | CCOC(=O)NCCOc1ccc(Oc2ccccc2)cc1 [Fenoxycarb, reference compound] | 100 | 100 | 5.94 (≈ 19.7 µM) | 59.9 (≈ 199 µM) | – | – | –
2 | O=C(COC(=O)Nc1ccccc1)NCCOC(=O)Nc1ccccc1 [Compound 2, 2-oxo-2-({2-[(phenylcarbamoyl)oxy]ethyl}amino)ethyl phenylcarbamate] | 40.13 | 73.98 | 14.8 (≈ 41.4 µM) | – | 80.98 (≈ 227 µM) | active against Spodoptera littoralis | –
3 | O=C(COC(=O)Nc1ccccc1)NCCOC(=O)Nc1ccccc1 [2-oxo-2-({2-[(phenylcarbamoyl)oxy]ethyl}amino)ethyl phenylcarbamate] | – | – | – | ~81 (≈ 227 µM) | – | – | –
4 | O=C(COC(=O)Nc1ccccc1)NCCOC(=O)Nc1ccccc1 [2-oxo-2-({2-[(phenylcarbamoyl)oxy]ethyl}amino)ethyl phenylca] [2-oxo-2-({2-[(phenylcarbamoyl)oxy]ethyl}amino)ethyl phenylcarbamate] | – | – | – | – | – | – | about 14.80 mg/L
